{"source": "patent US20160361311A1", "about": "“LIGANDS THAT TARGET HEPATITIS C VIRUS E2 PROTEIN” (AMERICAN UNIVERSITY OF CAIRO, priority 2014, published 2016)", "target": "T1, recombinant E2 protein (Hepatitis C virus genotype 1b, UniProt Q9WMX2)", "T1 construct": "encoding amino acids 384-656 of the Con1 envelope protein 2 ectodomain (eE2); made in house; host or cells: HEK293T cells (lentiviral, secreted)", "T1 sequence (Q9WMX2 384-656)": "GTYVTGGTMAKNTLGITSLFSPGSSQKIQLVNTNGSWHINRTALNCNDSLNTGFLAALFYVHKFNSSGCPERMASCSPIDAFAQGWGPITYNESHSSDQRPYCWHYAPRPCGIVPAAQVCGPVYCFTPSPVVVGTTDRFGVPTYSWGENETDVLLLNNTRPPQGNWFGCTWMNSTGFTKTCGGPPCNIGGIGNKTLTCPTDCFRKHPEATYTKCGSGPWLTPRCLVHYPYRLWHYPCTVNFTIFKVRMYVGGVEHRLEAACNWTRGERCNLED", "test": "Surface plasmon resonance (Biacore T100) binding to recombinant E2 immobilized on CM5 chip", "source_text": "A construct containing the sequence encoding amino acids 384-656 of the Con1 envelope protein 2 ectodomain (eE2), a genoptype 1 E2 sequence, was cloned into a lentiviral expression vector with a carboxy-terminal Protein A tag separated by a PreScission Protease cleavage consensus sequence. eE2-ProtA was stably expressed in HEK293T cells using lentiviral infection. The protein was secreted into the media and supernatants were purified using IgG Sepharose (GE Healthcare, Piscataway, N.J.). eE2-ProtA was eluted with 100 mM sodium citrate and 20 mM KCl at pH 3 directly into tubes containing 1M Tris pH 9 for immediate neutralization. PreScission Protease was added to the eluted sample at a ratio of 1:50 (enzyme:eE2), and the digest was then dialyzed into 20 mM HEPES pH 7.5, 250 mM NaCl, 5% glycerol. eE2 was separated from the cleaved tag and the PreScission Protease by ion exchange chromatography.\nThe set of 34 of the ligands predicted by AutoDock to bind to E2 were tested experimentally to determine if they bind to recombinant E2 protein immobilized on a chip using surface Plasmon resonance. The SPR analyses were performed using a Biacore T100 workstation (GE Healthcare, NJ, USA) and Prot-A-tagged HCV E2 protein. 1 μM ProtA-HCV E2 was diluted into 10 mM sodium acetate buffer pH 5 and immobilized for 15 min at a flow speed of 5 μl/min onto a CM5 sensor chip using amine coupling (EDC-NHS). Approximately 10,000 response units (RU) of protein were immobilized on the chip. His-CD81-LEL (Bioclone-CA/USA) binding to HCV E2 was tested prior to injecting the ligands to confirm the E2 protein was functional and would bind CD81-LEL. In a typical experiment with CD81, […] of his-CD81 in 114 μl PBS was injected into channel 2 and 106.4 RUs of CD81 bound to the E2 on the chip. This was followed by testing the binding of the 34 virtual screening hits where the ligands were prepared as 200 μM solutions in PBS and they were introduced to the protein using a pre-programmed 3 min association and 1 min dissociation interval. The response was measured at two time points during dissociation, 10 and 50 seconds, to obtain information on the rate of ligand dissociation from E2. Twenty-three of the ligands predicted by AutoDock to bind to E2 were observed by SPR to bind to the recombinant protein (Table 2). The measured responses for the ligands that bound varied from 54 to 276 RUs. Data was also obtained on the rate of ligand dissociation by measuring the amount of ligand remaining bound at two time points, dissociation 1 (10 seconds) and dissociation 2 (50 seconds), during the rinsing of the chip with buffer (FIG. 8). The majority of the ligands dissociated quickly, as one might expect for small molecules that bind to the surface of a protein.", "data": [{"molecule": "CSc1ccc2c(c1)C(N1CCN(C)CC1)Cc1ccccc1S2", "note": "(stereo not drawn) [Ligand 281816]", "values": [{"measurement": "Binding (RU)", "setting": "200 μM ligand in PBS, 3 min association", "value": 64.5, "unit": "RU"}, {"measurement": "Dissociation 1 (RU)", "setting": "response remaining 10 sec after rinsing with buffer", "value": 3.7, "unit": "RU"}, {"measurement": "Dissociation 2 (RU)", "setting": "response remaining 50 sec after rinsing with buffer", "value": 0.9, "unit": "RU"}]}]}
